Ten molecules from patent publication US20200291018A1, “TAM KINASE INHIBITORS” (SYROS PHARMACEUTICALS, INC., priority 2017, published 2020) can be followed below.

The target of experiment [1] is T1, AXL (Homo sapiens, UniProt P30530).
T1 sequence (P30530 26-894): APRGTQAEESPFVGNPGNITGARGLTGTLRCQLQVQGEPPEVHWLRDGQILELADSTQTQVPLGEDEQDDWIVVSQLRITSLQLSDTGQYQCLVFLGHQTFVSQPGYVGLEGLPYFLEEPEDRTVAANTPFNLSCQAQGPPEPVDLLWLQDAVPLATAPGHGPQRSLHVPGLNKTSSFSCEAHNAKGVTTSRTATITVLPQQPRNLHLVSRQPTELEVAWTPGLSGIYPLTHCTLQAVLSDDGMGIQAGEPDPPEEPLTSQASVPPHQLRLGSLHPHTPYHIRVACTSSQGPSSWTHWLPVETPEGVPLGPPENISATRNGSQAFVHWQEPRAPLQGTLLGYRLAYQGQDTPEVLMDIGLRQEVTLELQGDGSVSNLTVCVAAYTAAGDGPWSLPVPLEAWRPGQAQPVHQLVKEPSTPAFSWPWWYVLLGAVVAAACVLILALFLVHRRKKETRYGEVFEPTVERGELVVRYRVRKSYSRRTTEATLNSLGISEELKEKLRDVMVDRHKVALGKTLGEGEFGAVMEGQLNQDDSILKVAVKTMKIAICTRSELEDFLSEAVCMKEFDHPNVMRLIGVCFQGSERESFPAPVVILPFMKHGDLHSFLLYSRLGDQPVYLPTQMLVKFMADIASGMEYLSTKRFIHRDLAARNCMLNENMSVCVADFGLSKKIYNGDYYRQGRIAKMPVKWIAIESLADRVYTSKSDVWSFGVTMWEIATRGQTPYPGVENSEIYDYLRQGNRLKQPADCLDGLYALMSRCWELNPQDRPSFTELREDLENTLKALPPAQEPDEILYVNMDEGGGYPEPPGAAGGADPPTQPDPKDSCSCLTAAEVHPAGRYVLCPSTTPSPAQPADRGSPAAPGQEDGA
Description: TR-FRET kinase activity assay, AXL. It is filed as biochemical. As to conditions: ATP at Km, 60 minutes. The method in brief: (§1)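 IC50 came from TR-FRET signal after 30 min dark development with a Europium-labeled phospho-specific antibody. This followed a 60 min RT reaction, stopped with EDTA, started with ATP at Km per enzyme. Peptide substrate, enzyme and compound were premixed in HEPES pH 7.5 buffer with MgCl2, EGTA, Brij 35 and DTT.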

Experiment [2] addresses T2, TYRO3 (Homo sapiens, UniProt Q06418).
T2 sequence (Q06418 41-890): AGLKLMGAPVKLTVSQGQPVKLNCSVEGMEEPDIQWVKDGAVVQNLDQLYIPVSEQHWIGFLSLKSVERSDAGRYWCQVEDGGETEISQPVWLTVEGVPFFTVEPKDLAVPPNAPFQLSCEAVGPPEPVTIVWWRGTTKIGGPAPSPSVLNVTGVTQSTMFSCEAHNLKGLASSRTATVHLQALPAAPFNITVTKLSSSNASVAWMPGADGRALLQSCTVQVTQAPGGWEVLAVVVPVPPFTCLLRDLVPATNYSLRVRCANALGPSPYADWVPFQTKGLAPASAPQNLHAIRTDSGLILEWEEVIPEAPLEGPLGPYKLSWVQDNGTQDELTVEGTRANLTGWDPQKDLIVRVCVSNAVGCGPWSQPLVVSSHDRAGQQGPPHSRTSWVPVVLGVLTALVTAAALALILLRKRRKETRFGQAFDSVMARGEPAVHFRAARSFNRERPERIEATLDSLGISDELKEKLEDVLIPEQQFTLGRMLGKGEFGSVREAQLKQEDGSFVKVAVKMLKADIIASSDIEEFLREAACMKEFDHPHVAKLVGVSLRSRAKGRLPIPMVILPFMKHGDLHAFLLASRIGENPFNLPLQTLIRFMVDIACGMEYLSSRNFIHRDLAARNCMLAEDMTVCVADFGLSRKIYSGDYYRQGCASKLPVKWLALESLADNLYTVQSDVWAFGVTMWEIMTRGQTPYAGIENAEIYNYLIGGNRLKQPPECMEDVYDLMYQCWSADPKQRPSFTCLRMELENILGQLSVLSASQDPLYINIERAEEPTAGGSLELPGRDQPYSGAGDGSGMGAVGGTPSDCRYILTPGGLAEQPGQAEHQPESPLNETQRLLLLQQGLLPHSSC
The experiment can be described thus: TR-FRET kinase activity assay, TYRO3. Format: biochemical. The note with it: ATP at Km, 60 minutes. The procedure, abridged:
as §1
On the technique in general: TR-FRET usually uses a lanthanide donor and a delayed reading to cut background.

What is called IC50 is the concentration at which inhibition is half-maximal.

With `C[C@@H](CC(F)(F)F)Nc1ncc2c(O[C@H]3C[C@H](CN4CCOCC4)C3)ncc([C@H]3CC[C@H](O)CC3)c2n1` [Compound 420], the IC50 in experiment [1] and in experiment [2] was no more than 0.1 µM throughout.

As for `C[C@@H](CC(F)(F)F)Nc1ncc2c(O[C@@H]3C[C@H]4CC[C@@H](C3)N4C[C@@H]3CCCO3)ncc([C@H]3CC[C@H](O)CC3)c2n1` [Compound 421], the IC50 in experiment [1] and in experiment [2] was no more than 0.1 µM in each case.

For the molecule `C[C@@H](CC(F)(F)F)Nc1ncc2c(O[C@H]3C[C@H](N4CCOCC4)C3)ncc([C@H]3CC[C@H](O)CC3)c2n1` [Compound 422], the IC50 in experiment [1] and in experiment [2] was no more than 0.1 µM in each case.

As to `C[C@@H](CC(F)(F)F)Nc1ncc2c(O[C@H]3C[C@@H](O)C3)ncc([C@H]3CC[C@](C)(O)CC3)c2n1` [Compound 423], the half-inhibitory concentration (IC50) in experiment [1] and in experiment [2] was no more than 0.1 µM each time.

In the case of `C[C@@H](CC(F)(F)F)Nc1ncc2c(O[C@H]3C[C@@H](O)C3)ncc([C@H]3CC[C@@](C)(O)CC3)c2n1` [Compound 424], the concentration for half-maximal inhibition (IC50) in experiment [1] and in experiment [2] was no more than 0.1 µM in each case.

With `COC[C@H](C)Nc1ncc2c(O[C@H]3C[C@@H](O)C3)ncc(-c3ccnnc3)c2n1` [Compound 425], the 50% inhibitory concentration (IC50) in experiment [1] and in experiment [2] was 1 to 10 µM in each case.

For the molecule `COC[C@H](C)Nc1ncc2c(O[C@H]3C[C@@H](O)C3)ncc([C@H]3CC[C@](C)(O)CC3)c2n1` [Compound 426], the concentration for half-maximal inhibition (IC50) is 0.1 to 1 µM in experiment [1] and no more than 0.1 µM in experiment [2].

`COC[C@H](C)Nc1ncc2c(O[C@H]3C[C@@H](O)C3)ncc([C@H]3CC[C@@](C)(O)CC3)c2n1` [Compound 427]: the values for the IC50 in experiment [1] and in experiment [2] were 0.1 to 1 µM and no more than 0.1 µM, respectively.

With `C[C@@H](CC(F)F)Nc1ncc2c(O[C@H]3C[C@@H](O)C3)ncc([C@H]3CC[C@H](O)CC3)c2n1` [Compound 428], the half-inhibitory concentration (IC50) in experiment [1] and in experiment [2] was no more than 0.1 µM throughout.

`C[C@@H](CC(F)(F)F)Nc1ncc2c(O[C@H]3C[C@@](C)(O)C3)ncc([C@H]3CC[C@H](O)CC3)c2n1` [Compound 429]: the IC50 in experiment [1] and in experiment [2] was no more than 0.1 µM throughout.
